The record followed here is PMC9329436, “Optimization of the 4-anilinoquin(az)oline scaffold as epidermal growth factor receptor (EGFR) inhibitors for chordoma utilizing a toxicology profiling assay platform” (Scientific Reports, 2022).

Where two headings read alike, the source gives them in different places.

Holding throughout (type): biochemical
Experiment [1] has as its target 320 wild-type protein kinases (Homo sapiens, UniProt P21802). As to conditions: singlicate. From the text:
(§1) Table S4. Profiling of two compounds at two concentrations against 320 wild-type protein kinases; singlicate measurement; Residual activities (% of control).

Experiment [2] deals with 320 wild-type protein kinases (Homo sapiens, UniProt P41279). Conditions: COT, singlicate.
320 wild-type protein kinases (Homo sapiens, UniProt P41279), sequence (P41279 whole entry): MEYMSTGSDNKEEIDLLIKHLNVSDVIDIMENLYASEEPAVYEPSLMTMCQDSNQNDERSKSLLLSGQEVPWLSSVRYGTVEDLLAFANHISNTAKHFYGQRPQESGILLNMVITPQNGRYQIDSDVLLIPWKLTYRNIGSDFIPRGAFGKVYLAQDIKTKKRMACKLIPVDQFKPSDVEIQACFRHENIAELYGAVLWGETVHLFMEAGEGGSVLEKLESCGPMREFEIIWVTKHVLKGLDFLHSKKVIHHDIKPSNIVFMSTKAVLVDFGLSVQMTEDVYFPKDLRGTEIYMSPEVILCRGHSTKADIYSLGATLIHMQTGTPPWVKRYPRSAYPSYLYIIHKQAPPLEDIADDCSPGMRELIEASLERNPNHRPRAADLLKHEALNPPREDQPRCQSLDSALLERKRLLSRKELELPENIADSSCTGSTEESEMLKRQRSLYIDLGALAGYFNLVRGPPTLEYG
From the text: as §1

Experiment [3] concerns the target 320 wild-type protein kinases (Homo sapiens, UniProt P50750). Conditions: singlicate.
From the text: as §1

Experiment [4] concerns the target T1, 320 wild-type protein kinases (Homo sapiens, UniProt P51813).
T1 sequence (P51813 1-675): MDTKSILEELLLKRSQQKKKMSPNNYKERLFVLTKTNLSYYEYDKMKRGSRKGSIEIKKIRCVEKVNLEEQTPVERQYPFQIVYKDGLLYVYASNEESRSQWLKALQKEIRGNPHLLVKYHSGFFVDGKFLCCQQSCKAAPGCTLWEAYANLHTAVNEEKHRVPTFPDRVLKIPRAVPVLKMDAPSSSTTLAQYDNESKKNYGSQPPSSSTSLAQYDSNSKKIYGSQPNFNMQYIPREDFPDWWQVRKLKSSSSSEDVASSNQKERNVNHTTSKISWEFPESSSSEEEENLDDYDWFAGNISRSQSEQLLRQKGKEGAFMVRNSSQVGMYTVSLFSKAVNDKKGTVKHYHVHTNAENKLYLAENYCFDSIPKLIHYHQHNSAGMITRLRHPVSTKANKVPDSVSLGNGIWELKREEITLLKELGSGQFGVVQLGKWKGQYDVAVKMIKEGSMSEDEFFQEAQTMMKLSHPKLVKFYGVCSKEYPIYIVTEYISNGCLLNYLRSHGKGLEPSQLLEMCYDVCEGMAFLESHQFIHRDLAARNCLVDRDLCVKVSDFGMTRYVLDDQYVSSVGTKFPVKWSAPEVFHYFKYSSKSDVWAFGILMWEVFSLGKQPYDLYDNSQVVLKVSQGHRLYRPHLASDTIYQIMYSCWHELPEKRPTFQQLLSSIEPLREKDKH
As to conditions: BMX, singlicate.
From the text: as §1

Experiment [5] addresses 320 wild-type protein kinases (Homo sapiens, UniProt Q00535). Conditions: singlicate.
From the text: as §1

Experiment [6] deals with 320 wild-type protein kinases (Homo sapiens, UniProt Q13233). Conditions: singlicate.
320 wild-type protein kinases (Homo sapiens, UniProt Q13233), sequence (Q13233 whole entry): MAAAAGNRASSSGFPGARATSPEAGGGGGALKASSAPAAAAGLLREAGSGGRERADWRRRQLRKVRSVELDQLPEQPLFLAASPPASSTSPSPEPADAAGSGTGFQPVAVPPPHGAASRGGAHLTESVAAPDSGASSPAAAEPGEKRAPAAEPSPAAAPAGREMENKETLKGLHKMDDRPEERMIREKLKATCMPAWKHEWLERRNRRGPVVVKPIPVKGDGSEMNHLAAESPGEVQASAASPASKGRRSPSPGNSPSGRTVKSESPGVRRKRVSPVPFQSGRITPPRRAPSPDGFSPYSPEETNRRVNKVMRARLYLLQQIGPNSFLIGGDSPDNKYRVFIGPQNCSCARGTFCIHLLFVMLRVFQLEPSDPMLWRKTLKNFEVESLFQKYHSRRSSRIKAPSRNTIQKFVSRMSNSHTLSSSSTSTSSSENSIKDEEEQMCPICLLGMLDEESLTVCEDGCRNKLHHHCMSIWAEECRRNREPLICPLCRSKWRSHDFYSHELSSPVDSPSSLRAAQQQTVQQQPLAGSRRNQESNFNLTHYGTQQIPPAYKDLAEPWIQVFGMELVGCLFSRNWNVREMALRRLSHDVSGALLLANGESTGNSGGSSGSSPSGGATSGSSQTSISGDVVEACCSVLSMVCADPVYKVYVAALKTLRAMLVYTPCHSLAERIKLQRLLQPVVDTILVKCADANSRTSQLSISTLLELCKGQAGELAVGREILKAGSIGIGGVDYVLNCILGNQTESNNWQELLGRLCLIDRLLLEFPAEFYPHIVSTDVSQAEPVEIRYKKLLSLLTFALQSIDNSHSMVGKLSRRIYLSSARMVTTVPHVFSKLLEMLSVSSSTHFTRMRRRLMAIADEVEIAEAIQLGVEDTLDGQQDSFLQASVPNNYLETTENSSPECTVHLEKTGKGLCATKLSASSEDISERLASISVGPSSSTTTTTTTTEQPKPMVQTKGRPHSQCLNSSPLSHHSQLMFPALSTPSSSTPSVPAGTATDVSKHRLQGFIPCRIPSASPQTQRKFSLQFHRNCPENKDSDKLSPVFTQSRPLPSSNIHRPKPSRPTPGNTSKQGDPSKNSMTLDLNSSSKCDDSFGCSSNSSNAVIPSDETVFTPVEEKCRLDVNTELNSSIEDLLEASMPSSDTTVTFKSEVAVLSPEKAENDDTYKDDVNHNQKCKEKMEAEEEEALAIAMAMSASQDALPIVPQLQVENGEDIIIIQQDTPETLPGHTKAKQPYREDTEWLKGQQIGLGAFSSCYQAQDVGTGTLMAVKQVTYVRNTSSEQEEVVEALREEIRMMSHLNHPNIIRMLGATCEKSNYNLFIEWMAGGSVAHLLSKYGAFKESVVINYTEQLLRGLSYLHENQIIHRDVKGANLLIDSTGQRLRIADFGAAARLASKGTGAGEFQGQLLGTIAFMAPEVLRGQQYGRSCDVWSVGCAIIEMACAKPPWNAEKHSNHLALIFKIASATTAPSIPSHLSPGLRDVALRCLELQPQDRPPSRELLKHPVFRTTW
From the text: as §1

For experiment [7], the target named is T2, 320 wild-type protein kinases (Homo sapiens, UniProt Q8TD19).
T2 sequence (Q8TD19 1-979): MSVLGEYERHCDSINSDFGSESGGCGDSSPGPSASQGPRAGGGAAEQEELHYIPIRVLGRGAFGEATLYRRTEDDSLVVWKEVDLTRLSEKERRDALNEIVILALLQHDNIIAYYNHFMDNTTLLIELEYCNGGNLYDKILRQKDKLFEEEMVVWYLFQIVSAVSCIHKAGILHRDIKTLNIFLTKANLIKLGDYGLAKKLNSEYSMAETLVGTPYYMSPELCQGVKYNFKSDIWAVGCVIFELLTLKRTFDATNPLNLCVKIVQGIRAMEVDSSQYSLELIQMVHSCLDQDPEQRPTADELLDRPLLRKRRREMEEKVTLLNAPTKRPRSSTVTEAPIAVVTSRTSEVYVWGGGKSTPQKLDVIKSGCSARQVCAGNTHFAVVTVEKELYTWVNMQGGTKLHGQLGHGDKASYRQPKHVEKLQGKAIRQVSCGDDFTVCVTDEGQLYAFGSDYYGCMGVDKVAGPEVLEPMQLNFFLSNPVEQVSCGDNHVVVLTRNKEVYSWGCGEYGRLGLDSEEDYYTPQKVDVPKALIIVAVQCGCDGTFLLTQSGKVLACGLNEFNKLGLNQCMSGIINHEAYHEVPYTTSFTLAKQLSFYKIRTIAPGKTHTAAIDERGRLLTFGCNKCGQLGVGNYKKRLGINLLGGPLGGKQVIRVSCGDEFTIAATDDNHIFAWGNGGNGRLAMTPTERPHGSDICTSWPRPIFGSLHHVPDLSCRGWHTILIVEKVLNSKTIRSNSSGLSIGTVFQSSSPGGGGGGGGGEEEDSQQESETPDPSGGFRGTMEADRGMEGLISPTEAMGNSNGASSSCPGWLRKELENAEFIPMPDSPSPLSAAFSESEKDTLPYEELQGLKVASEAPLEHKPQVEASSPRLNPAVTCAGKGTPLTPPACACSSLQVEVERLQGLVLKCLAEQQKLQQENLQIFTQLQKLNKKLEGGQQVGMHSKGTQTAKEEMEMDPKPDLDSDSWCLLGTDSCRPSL
Conditions: singlicate.
From the text: as §1

320 wild-type protein kinases (Homo sapiens, UniProt Q00535), sequence (Q00535 whole entry): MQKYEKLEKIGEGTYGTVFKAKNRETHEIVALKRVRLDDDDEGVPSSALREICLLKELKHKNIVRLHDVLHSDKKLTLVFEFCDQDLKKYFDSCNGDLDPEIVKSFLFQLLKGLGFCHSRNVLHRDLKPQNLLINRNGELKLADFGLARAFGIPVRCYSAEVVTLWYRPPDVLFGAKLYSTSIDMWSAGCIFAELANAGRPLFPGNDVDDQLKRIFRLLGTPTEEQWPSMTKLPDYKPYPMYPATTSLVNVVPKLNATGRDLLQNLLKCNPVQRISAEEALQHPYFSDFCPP
320 wild-type protein kinases (Homo sapiens, UniProt P50750), sequence (P50750 whole entry): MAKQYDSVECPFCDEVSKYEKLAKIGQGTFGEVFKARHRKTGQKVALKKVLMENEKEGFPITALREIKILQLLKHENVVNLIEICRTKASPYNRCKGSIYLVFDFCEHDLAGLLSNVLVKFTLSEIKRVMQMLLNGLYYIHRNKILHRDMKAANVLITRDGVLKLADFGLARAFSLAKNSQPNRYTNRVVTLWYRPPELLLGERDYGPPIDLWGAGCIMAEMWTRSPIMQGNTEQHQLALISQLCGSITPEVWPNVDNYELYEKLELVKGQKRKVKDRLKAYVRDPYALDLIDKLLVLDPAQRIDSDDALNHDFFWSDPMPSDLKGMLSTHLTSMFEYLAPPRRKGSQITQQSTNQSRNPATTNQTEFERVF
320 wild-type protein kinases (Homo sapiens, UniProt P21802), sequence (P21802 22-821): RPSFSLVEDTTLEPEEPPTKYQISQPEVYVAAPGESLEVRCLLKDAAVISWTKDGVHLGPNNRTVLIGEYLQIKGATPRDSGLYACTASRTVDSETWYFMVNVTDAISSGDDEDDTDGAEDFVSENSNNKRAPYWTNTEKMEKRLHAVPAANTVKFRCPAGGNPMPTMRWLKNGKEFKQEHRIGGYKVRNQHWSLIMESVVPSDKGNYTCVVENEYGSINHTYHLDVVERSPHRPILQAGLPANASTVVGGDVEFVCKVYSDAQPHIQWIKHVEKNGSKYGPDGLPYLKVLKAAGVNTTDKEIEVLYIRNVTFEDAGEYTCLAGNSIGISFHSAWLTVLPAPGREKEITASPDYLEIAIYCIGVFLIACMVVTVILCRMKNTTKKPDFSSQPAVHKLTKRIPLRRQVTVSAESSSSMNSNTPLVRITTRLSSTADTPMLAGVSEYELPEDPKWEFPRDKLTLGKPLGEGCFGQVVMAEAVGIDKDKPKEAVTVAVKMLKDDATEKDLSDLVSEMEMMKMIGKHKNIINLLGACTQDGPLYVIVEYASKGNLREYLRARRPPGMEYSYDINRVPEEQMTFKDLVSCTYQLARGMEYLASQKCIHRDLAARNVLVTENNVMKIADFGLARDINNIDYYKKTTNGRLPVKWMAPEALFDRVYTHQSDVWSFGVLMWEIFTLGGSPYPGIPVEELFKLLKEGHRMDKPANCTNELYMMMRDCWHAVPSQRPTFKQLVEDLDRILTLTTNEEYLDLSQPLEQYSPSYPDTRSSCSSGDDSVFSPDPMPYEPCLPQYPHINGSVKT

On to `C#Cc1cc(Nc2ncnc3cc(OC)c(OC)cc23)ccc1Cl` [Compound 45], for which the Residual activity in experiment [1] (FGF-R2, 1.0E-06 M) is recorded as 69 % of control; in experiment [1] (FGF-R2, 1.0E-07 M), 87 % of control; in experiment [2] (1.0E-06 M), 123 % of control; in experiment [2] (1.0E-07 M) it was 98 % of control; in experiment [3] (CDK9/CycK, 1.0E-06 M), 86 % of control; in experiment [3] (CDK9/CycK, 1.0E-07 M), 103 % of control. For the same compound, the Residual activity in experiment [3] (CDK9/CycT1, 1.0E-06 M) was 88 % of control; in experiment [3] (CDK9/CycT1, 1.0E-07 M), 90 % of control; in experiment [4] (1.0E-06 M), 81 % of control; in experiment [4] (1.0E-07 M), 92 % of control; in experiment [5] (CDK5/p25NCK, 1.0E-06 M), 103 % of control; in experiment [5] (CDK5/p25NCK, 1.0E-07 M), 98 % of control. In addition, the Residual activity in experiment [5] (CDK5/p35NCK, 1.0E-06 M) is recorded as 88 % of control; in experiment [5] (CDK5/p35NCK, 1.0E-07 M), 88 % of control; in experiment [6] (MAP3K1, 1.0E-06 M) it was 96 % of control; in experiment [6] (MAP3K1, 1.0E-07 M), 96 % of control; in experiment [7] (NEK9, 1.0E-06 M), 91 % of control; in experiment [7] (NEK9, 1.0E-07 M), 111 % of control.
Take `C#Cc1cc(Nc2ncnc3cc(I)ccc23)ccc1Cl` [Compound 41]: the Residual activity in experiment [1] (FGF-R2, 1.0E-06 M) is recorded as 85 % of control; in experiment [1] (FGF-R2, 1.0E-07 M), 88 % of control; in experiment [2] (1.0E-06 M), 91 % of control; in experiment [2] (1.0E-07 M) it was 91 % of control; in experiment [3] (CDK9/CycK, 1.0E-06 M), 80 % of control; in experiment [3] (CDK9/CycK, 1.0E-07 M), 99 % of control. Besides, the Residual activity in experiment [3] (CDK9/CycT1, 1.0E-06 M) is listed as 92 % of control; in experiment [3] (CDK9/CycT1, 1.0E-07 M), 95 % of control; in experiment [4] (1.0E-06 M), 77 % of control; in experiment [4] (1.0E-07 M), 86 % of control; in experiment [5] (CDK5/p25NCK, 1.0E-06 M) it was 100 % of control; in experiment [5] (CDK5/p25NCK, 1.0E-07 M), 119 % of control. Moreover, the Residual activity is reported as 86 % of control in experiment [5] (CDK5/p35NCK, 1.0E-06 M); 87 % of control in experiment [5] (CDK5/p35NCK, 1.0E-07 M); 93 % of control in experiment [6] (MAP3K1, 1.0E-06 M); 96 % of control in experiment [6] (MAP3K1, 1.0E-07 M); 115 % of control in experiment [7] (NEK9, 1.0E-06 M); 134 % of control in experiment [7] (NEK9, 1.0E-07 M).
